# Assay results from PubChem BioAssay (NCI).
#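 The compound was tested at five concentrations on cells cultured in 96-well plates, with a 48-hour exposure period. The concentration for full growth arrest is given as TGI.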
# System: IGROV1 ovarian
# Test: DTP human tumour cell line panel, 48 h
row,Structure (SMILES),TGI [µM]
1,CCOC(=O)NC1CN2CCC1CC2 (configuration not stated),> 100
2,CC(=C\c1ccccc1)/C=C(\C#N)C(N)=O,> 10
3,CN(C)/C=N/n1c2ccccc2c2ccccc21,> 100
4,O=[N+]([O-])c1cc2c(c3nonc13)OCCCCO2,21.2

# System: RPMI-8226 leukemia
# Test: DTP human tumour cell line panel, 48 h
row,Structure (SMILES),TGI [µM]
1,CCOC(=O)NC1CN2CCC1CC2 (configuration not stated),> 100
2,CN(C)/C=N/n1c2ccccc2c2ccccc21,> 100
3,O=[N+]([O-])c1cc2c(c3nonc13)OCCCCO2,16.3

# System: HS 578T breast
# Test: DTP human tumour cell line panel, 48 h
row,Structure (SMILES),TGI [µM]
1,CCOC(=O)NC1CN2CCC1CC2 (configuration not stated),> 100
2,CC(=C\c1ccccc1)/C=C(\C#N)C(N)=O,> 10
3,CN(C)/C=N/n1c2ccccc2c2ccccc21,> 100
4,O=[N+]([O-])c1cc2c(c3nonc13)OCCCCO2,67.7

# System: UACC-62 melanoma
# Test: DTP human tumour cell line panel, 48 h
row,Structure (SMILES),TGI [µM]
1,CCOC(=O)NC1CN2CCC1CC2 (configuration not stated),> 100
2,CN(C)/C=N/n1c2ccccc2c2ccccc21,> 100
3,O=[N+]([O-])c1cc2c(c3nonc13)OCCCCO2,21.5

# System: RXF 393 renal
# Test: DTP human tumour cell line panel, 48 h
row,Structure (SMILES),TGI [µM]
1,CCOC(=O)NC1CN2CCC1CC2 (configuration not stated),> 100
2,CC(=C\c1ccccc1)/C=C(\C#N)C(N)=O,> 10
3,CN(C)/C=N/n1c2ccccc2c2ccccc21,> 100
4,O=[N+]([O-])c1cc2c(c3nonc13)OCCCCO2,20

# System: SNB-19 CNS
# Test: DTP human tumour cell line panel, 48 h
row,Structure (SMILES),TGI [µM]
1,CCOC(=O)NC1CN2CCC1CC2 (configuration not stated),> 100
2,CN(C)/C=N/n1c2ccccc2c2ccccc21,> 100
3,O=[N+]([O-])c1cc2c(c3nonc13)OCCCCO2,34.6

# System: PC-3 prostate
# Test: DTP human tumour cell line panel, 48 h
row,Structure (SMILES),TGI [µM]
1,CCOC(=O)NC1CN2CCC1CC2 (configuration not stated),> 100
2,CC(=C\c1ccccc1)/C=C(\C#N)C(N)=O,> 10
3,CN(C)/C=N/n1c2ccccc2c2ccccc21,> 100
4,O=[N+]([O-])c1cc2c(c3nonc13)OCCCCO2,41.7

# System: SR leukemia
# Test: DTP human tumour cell line panel, 48 h
row,Structure (SMILES),TGI [µM]
1,CCOC(=O)NC1CN2CCC1CC2 (configuration not stated),> 100
2,CN(C)/C=N/n1c2ccccc2c2ccccc21,> 100

# System: HOP-62 NSCLC
# Test: DTP human tumour cell line panel, 48 h
row,Structure (SMILES),TGI [µM]
1,CCOC(=O)NC1CN2CCC1CC2 (configuration not stated),> 100
2,CC(=C\c1ccccc1)/C=C(\C#N)C(N)=O,> 10
3,CN(C)/C=N/n1c2ccccc2c2ccccc21,> 100
4,O=[N+]([O-])c1cc2c(c3nonc13)OCCCCO2,16.2

# System: SW-620 colon
# Test: DTP human tumour cell line panel, 48 h
row,Structure (SMILES),TGI [µM]
1,CCOC(=O)NC1CN2CCC1CC2 (configuration not stated),> 100
2,CC(=C\c1ccccc1)/C=C(\C#N)C(N)=O,> 10
3,CN(C)/C=N/n1c2ccccc2c2ccccc21,> 100
4,O=[N+]([O-])c1cc2c(c3nonc13)OCCCCO2,20.7

# System: SK-MEL-2 melanoma
# Test: DTP human tumour cell line panel, 48 h
row,Structure (SMILES),TGI [µM]
1,CCOC(=O)NC1CN2CCC1CC2 (configuration not stated),> 100
2,CC(=C\c1ccccc1)/C=C(\C#N)C(N)=O,> 10
3,CN(C)/C=N/n1c2ccccc2c2ccccc21,> 100
4,O=[N+]([O-])c1cc2c(c3nonc13)OCCCCO2,29.2

# System: SK-MEL-28 melanoma
# Test: DTP human tumour cell line panel, 48 h
row,Structure (SMILES),TGI [µM]
1,CCOC(=O)NC1CN2CCC1CC2 (configuration not stated),> 100
2,CC(=C\c1ccccc1)/C=C(\C#N)C(N)=O,> 10
3,CN(C)/C=N/n1c2ccccc2c2ccccc21,> 100
4,O=[N+]([O-])c1cc2c(c3nonc13)OCCCCO2,22.5

# System: OVCAR-8 ovarian
# Test: DTP human tumour cell line panel, 48 h
row,Structure (SMILES),TGI [µM]
1,CCOC(=O)NC1CN2CCC1CC2 (configuration not stated),> 100
2,CC(=C\c1ccccc1)/C=C(\C#N)C(N)=O,> 10
3,CN(C)/C=N/n1c2ccccc2c2ccccc21,> 100
4,O=[N+]([O-])c1cc2c(c3nonc13)OCCCCO2,14.2

# System: A498 renal
# Test: DTP human tumour cell line panel, 48 h
row,Structure (SMILES),TGI [µM]
1,CCOC(=O)NC1CN2CCC1CC2 (configuration not stated),> 100
2,CC(=C\c1ccccc1)/C=C(\C#N)C(N)=O,> 10
3,CN(C)/C=N/n1c2ccccc2c2ccccc21,> 100
4,O=[N+]([O-])c1cc2c(c3nonc13)OCCCCO2,47.6

# System: HCT-116 colon
# Test: DTP human tumour cell line panel, 48 h
row,Structure (SMILES),TGI [µM]
1,CCOC(=O)NC1CN2CCC1CC2 (configuration not stated),> 100
2,CN(C)/C=N/n1c2ccccc2c2ccccc21,> 100
3,O=[N+]([O-])c1cc2c(c3nonc13)OCCCCO2,3.46

# System: SF-539 CNS
# Test: DTP human tumour cell line panel, 48 h
row,Structure (SMILES),TGI [µM]
1,CCOC(=O)NC1CN2CCC1CC2 (configuration not stated),> 100
2,CC(=C\c1ccccc1)/C=C(\C#N)C(N)=O,> 10
3,CN(C)/C=N/n1c2ccccc2c2ccccc21,> 100
4,O=[N+]([O-])c1cc2c(c3nonc13)OCCCCO2,7.27

# System: T-47D breast
# Test: DTP human tumour cell line panel, 48 h
row,Structure (SMILES),TGI [µM]
1,CCOC(=O)NC1CN2CCC1CC2 (configuration not stated),> 100
2,CC(=C\c1ccccc1)/C=C(\C#N)C(N)=O,> 10
3,CN(C)/C=N/n1c2ccccc2c2ccccc21,> 100
4,O=[N+]([O-])c1cc2c(c3nonc13)OCCCCO2,60.5

# System: 786-0 renal
# Test: DTP human tumour cell line panel, 48 h
row,Structure (SMILES),TGI [µM]
1,CCOC(=O)NC1CN2CCC1CC2 (configuration not stated),> 100
2,CC(=C\c1ccccc1)/C=C(\C#N)C(N)=O,> 10
3,CN(C)/C=N/n1c2ccccc2c2ccccc21,> 100
4,O=[N+]([O-])c1cc2c(c3nonc13)OCCCCO2,10.7

# System: NCI-H522 lung
# Test: DTP human tumour cell line panel, 48 h
row,Structure (SMILES),TGI [µM]
1,CCOC(=O)NC1CN2CCC1CC2 (configuration not stated),> 100
2,CC(=C\c1ccccc1)/C=C(\C#N)C(N)=O,> 10
3,CN(C)/C=N/n1c2ccccc2c2ccccc21,> 100
4,O=[N+]([O-])c1cc2c(c3nonc13)OCCCCO2,17.4

# System: MDA-MB-231 breast
# Test: DTP human tumour cell line panel, 48 h
row,Structure (SMILES),TGI [µM]
1,CCOC(=O)NC1CN2CCC1CC2 (configuration not stated),> 100
2,CC(=C\c1ccccc1)/C=C(\C#N)C(N)=O,> 10
3,CN(C)/C=N/n1c2ccccc2c2ccccc21,> 100
4,O=[N+]([O-])c1cc2c(c3nonc13)OCCCCO2,12.1

# System: SN12C renal
# Test: DTP human tumour cell line panel, 48 h
row,Structure (SMILES),TGI [µM]
1,CCOC(=O)NC1CN2CCC1CC2 (configuration not stated),> 100
2,CC(=C\c1ccccc1)/C=C(\C#N)C(N)=O,> 10
3,CN(C)/C=N/n1c2ccccc2c2ccccc21,> 100
4,O=[N+]([O-])c1cc2c(c3nonc13)OCCCCO2,16.1

# System: MALME-3M melanoma
# Test: DTP human tumour cell line panel, 48 h
row,Structure (SMILES),TGI [µM]
1,CCOC(=O)NC1CN2CCC1CC2 (configuration not stated),> 100
2,CC(=C\c1ccccc1)/C=C(\C#N)C(N)=O,> 10
3,CN(C)/C=N/n1c2ccccc2c2ccccc21,> 100
4,O=[N+]([O-])c1cc2c(c3nonc13)OCCCCO2,11.9

# System: NCI-H460 lung
# Test: DTP human tumour cell line panel, 48 h
row,Structure (SMILES),TGI [µM]
1,CCOC(=O)NC1CN2CCC1CC2 (configuration not stated),> 100
2,CC(=C\c1ccccc1)/C=C(\C#N)C(N)=O,> 10
3,CN(C)/C=N/n1c2ccccc2c2ccccc21,> 100
4,O=[N+]([O-])c1cc2c(c3nonc13)OCCCCO2,14

# System: K-562 leukemia
# Test: DTP human tumour cell line panel, 48 h
row,Structure (SMILES),TGI [µM]
1,CCOC(=O)NC1CN2CCC1CC2 (configuration not stated),> 100
2,CN(C)/C=N/n1c2ccccc2c2ccccc21,> 100
3,O=[N+]([O-])c1cc2c(c3nonc13)OCCCCO2,17.3

# System: EKVX NSCLC
# Test: DTP human tumour cell line panel, 48 h
row,Structure (SMILES),TGI [µM]
1,CCOC(=O)NC1CN2CCC1CC2 (configuration not stated),> 100
2,CC(=C\c1ccccc1)/C=C(\C#N)C(N)=O,> 10
3,CN(C)/C=N/n1c2ccccc2c2ccccc21,> 100
4,O=[N+]([O-])c1cc2c(c3nonc13)OCCCCO2,38.5

# System: MDA-N
# Test: DTP human tumour cell line panel, 48 h
row,Structure (SMILES),TGI [µM]
1,CCOC(=O)NC1CN2CCC1CC2 (configuration not stated),> 100
2,CC(=C\c1ccccc1)/C=C(\C#N)C(N)=O,> 10
3,CN(C)/C=N/n1c2ccccc2c2ccccc21,> 100
4,O=[N+]([O-])c1cc2c(c3nonc13)OCCCCO2,16.4

# System: CAKI-1 renal
# Test: DTP human tumour cell line panel, 48 h
row,Structure (SMILES),TGI [µM]
1,CCOC(=O)NC1CN2CCC1CC2 (configuration not stated),> 100
2,CC(=C\c1ccccc1)/C=C(\C#N)C(N)=O,> 10
3,CN(C)/C=N/n1c2ccccc2c2ccccc21,75.8
4,O=[N+]([O-])c1cc2c(c3nonc13)OCCCCO2,34.3

# System: HCC-2998 colon
# Test: DTP human tumour cell line panel, 48 h
row,Structure (SMILES),TGI [µM]
1,CCOC(=O)NC1CN2CCC1CC2 (configuration not stated),> 100
2,CC(=C\c1ccccc1)/C=C(\C#N)C(N)=O,> 10
3,CN(C)/C=N/n1c2ccccc2c2ccccc21,> 100
4,O=[N+]([O-])c1cc2c(c3nonc13)OCCCCO2,35.5

# System: CCRF-CEM leukemia
# Test: DTP human tumour cell line panel, 48 h
row,Structure (SMILES),TGI [µM]
1,CCOC(=O)NC1CN2CCC1CC2 (configuration not stated),> 100
2,CN(C)/C=N/n1c2ccccc2c2ccccc21,> 100
